Measured values taken from patent US4388236A, “Enkephalin-like compounds in bovine adrenal medulla” (Hoffmann-La Roche Inc., priority 1982, dated 1983).
Several values for one entry are separate records, joined by “and”; a condition that tells them apart may be missing. Equal values may be shown once. Entries after “also recorded” stand apart in the source; their conditions may differ. No end group written: not given here.

Experiments:
opiate receptor = target: T1, opiate receptor (Mus musculus, UniProt P32300); assay: Radioreceptor assay (opiate receptor binding activity)
T1 construct: endogenous in cells; host or cells: neuroblastoma x glioma hybrid cells (NG108-15)
Excerpt: Extracts of bovine adrenal medulla (BAM) or chromaffin granules (CG) therefrom were obtained by conventional methods known in the art and were purified using gel filtration, high pressure liquid chromatography (HPLC) and fluorometric detection by method of Bohlen, P. et al., Anal. Biochem. 67, 437 (1975).
Opioid activities for peaks I-V were quantitatively determined by conventional means in radioreceptor assays before (Native) and after trypsin digestion of each of the peaks from BAM and CG sources.

mice [1] = assay: Tail flick response (analgesic assay); type: in vivo; set-up: tail flick response, Prior Injection Time (Control) Predose / tail flick response, Post Injection Time 2 min.: unit not given here; conditions: for tail flick response, Prior Injection Time (Control) Predose / tail flick response, Post Injection Time 5 / tail flick response, Post Injection Time 10 / Response (analgesic activity) / tail flick response, Post Injection Time 2 min.: individual mice; for tail flick response, Prior Injection Time (Control) Predose: before intracerebral ventrical injection; for tail flick response, Post Injection Time 5 / tail flick response, Post Injection Time 10 / No. of Mice Responsive/Total No. of Mice / Response (analgesic activity) / tail flick response, Post Injection Time 2 min.: intracerebral ventrical, Beta-endorphin 4.5nm, Arg6-Phe7 met-enkephalin 6 n moles; for tail flick response, Post Injection Time 5 / tail flick response, Post Injection Time 10 / No. of Mice Responsive/Total No. of Mice / Response (analgesic activity): Acetylcholine 20ng; for tail flick response, Post Injection Time 10 / Response (analgesic activity) / tail flick response, Post Injection Time 2 min.: Met Enk 120nm
Protocol: For the analgesic assay, mice were injected (intracerebral ventrical) with 6 n moles of the synthetic peptide (Tyr-Gly-Gly-Phe-Met-Arg-Phe). The tail flick response assay was carried out according to the method of Dayton, et al., Proc. Soc. […] The tail flick response (analgesic activity) was measured prior to injection and at 2,5 and 10 minutes post injection time. Results are tabulated in Table V. Further results are given in Inturris, et. al., Proc. Nat'l. Acad. Sci. (U.S.A.), 77,5512 (1980).

mice [2] = conditions: intracerebra-ventricular or intravenous administration to mice; cited from earlier work
[3] = tested on: C-terminal directed Leu-enkephalin antibody; assay: Radioimmunoassay with C-terminal directed Leu-enkephalin antibody; type: binding; conditions: fractions from RP-18 of peak V; 1.3 g wet weight of chromaffin granules isolated from 30 g of adrenal medulla
Protocol: (§1) Radioimmunoassays were performed using a C-terminal directed Leu-enkephalinantibody and a N-terminal directed Met-enkephalin antibody. The characteristics of these antibodies and methods of use have been described previously and were followed in Lewis, R. V., et al., Biochem. Biophys. Res. Commun. 89, 822 (1979).

rats = conditions: intracerebra-ventricular or intravenous administration to rats; cited from earlier work
[4] = tested on: N-terminal directed Met-enkephalin antibody; assay: Radioimmunoassay with N-terminal directed Met-enkephalin antibody; type: binding; conditions: fractions from RP-18 of peak V; 1.3 g wet weight of chromaffin granules isolated from 30 g of adrenal medulla
Protocol: as §1

mice [5] = assay: Tail flick response (analgesic assay); type: in vivo; set-up: tail flick response, Prior Injection Time (Control) Predose / tail flick response, Post Injection Time 2 min.: unit not given here; conditions: individual mice

T1 sequence (P32300 whole entry): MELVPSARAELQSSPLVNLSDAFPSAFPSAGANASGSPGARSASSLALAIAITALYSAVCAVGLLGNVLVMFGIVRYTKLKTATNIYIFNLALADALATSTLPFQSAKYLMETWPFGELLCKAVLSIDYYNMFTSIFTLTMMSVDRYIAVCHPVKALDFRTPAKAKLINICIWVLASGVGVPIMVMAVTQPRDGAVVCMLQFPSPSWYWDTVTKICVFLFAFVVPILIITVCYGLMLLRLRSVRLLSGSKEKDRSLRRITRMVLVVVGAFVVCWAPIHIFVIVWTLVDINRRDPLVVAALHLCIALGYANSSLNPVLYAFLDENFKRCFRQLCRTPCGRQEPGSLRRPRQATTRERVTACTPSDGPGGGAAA

Row | Compound | opiate receptor binding activity in radioreceptor assay (in words) (opiate receptor) | tail flick response, Prior Injection Time (Control) Predose (mice [1]) | tail flick response, Post Injection Time 5 (mice [1]) | tail flick response, Post Injection Time 10 (mice [1]) | No. of Mice Responsive/Total No. of Mice (mice [1]) | Response (analgesic activity) (mice [1]) | further results
1 | YGGFMR [I-T-1] | active in the radioreceptor assay at high concentrations | – | – | – | – | – | –
2 | CC(=O)OCC[N+](C)(C)C [Acetylcholine] | – | 4.6 and 5.0 and 4.5 | 6.1 and > 10 | > 10 | 3/3 | – | –
3 | YGGFMR [Met-enkephalin-(Arg^6)] | active in the radioreceptor assay at high concentrations; also recorded: binds very poorly | – | – | – | – | – | binding activity relative to Leu-enkephalin (opiate receptor): less than 3%
4 | YGGFMRF [Arg^6 --Phe^7 met-enkephalin, Tyr-Gly-Gly-Phe-Met-Arg-Phe] | – | 5.7 and 5.2 and 4.6 and 3.6 and 3.7 and 4.0 | 5.4 and 4.2 and 3.8 and 9.0 and 4.0 | 6.3 and 5.8 and > 10 and 5.0 and 4 | 4/8 | Neg. and Pos. and neg. | tail flick response, Post Injection Time 2 min. (mice [1]): 4.9 and 4.6 and 4.3 and 4.0 and 3.4 and 4.5
5 | YGGFMK [Met-enkephalin-(Lys^6)] | – | – | – | – | – | – | binding to the receptor relative to Met-enkephalin (opiate receptor; from binding curves): 9%
6 | CC(C)C[C@H](NC(=O)[C@H](Cc1ccccc1)NC(=O)CNC(=O)CNC(=O)[C@@H](N)Cc1ccc(O)cc1)C(=O)O [Leu-Ek, leucine enkephalin] | – | – | – | – | – | – | analgesia (mice [2]): weak and short term analgesia; C-Terminal radioimmunoassay [3]: 1.0 nmoles/fraction; analgesia (rats): weak and short term analgesia; N-Terminal radioimmunoassay [4]: 0.4 nmoles/fraction
7 | YGGFMK [F-T-1] | opiate receptor binding activity | – | – | – | – | – | –
8 | Beta-endorphin | – | 4.0 and 4.7 and 4.2 and 5.4 and 4.4 and 4.3 | > 10 and > 9 and 3.4 and 3.1 | 8 and > 10 and 3.8 | 5/7 | Pos. and Neg. | tail flick response, Post Injection Time 2 min. (mice [1]): 5.9 and 3.0 and 4.4 and 3.8; tail flick response, Post Injection Time 20 (mice [5]; intracerebral ventrical, Beta-endorphin 4.5nm): > 10
9 | CSCC[C@H](NC(=O)[C@H](Cc1ccccc1)NC(=O)CNC(=O)CNC(=O)[C@@H](N)Cc1ccc(O)cc1)C(=O)O [Met-Ek, methionine enkephalin] | – | – | – | – | – | Neg. | analgesia (mice [2]): weak and short term analgesia; C-Terminal radioimmunoassay [3]: 0.03 nmoles/fraction; Radioreceptor (opiate receptor; fractions from RP-18 of peak V, 1.3 g wet weight of chromaffin granules isolated from 30 g of adrenal medulla): 1.0 nmoles/fraction; analgesia (rats): weak and short term analgesia; N-Terminal radioimmunoassay [4]: 1.0 nmoles/fraction; tail flick response, Prior Injection Time (Control) Predose (mice [5]; before intracerebral ventrical injection, listed as Met Enk): 4.1 and 5.4 and 4.6; tail flick response, Post Injection Time 10 (mice [5]; intracerebral ventrical, Met Enk 120nm, Acetylcholine 20ng, Beta-endorphin 4.5nm, Arg6-Phe7 met-enkephalin 6 n moles): 6.3 and 5.9 and 5.0; tail flick response, Post Injection Time 2 min. (mice [5]; intracerebral ventrical, Met Enk 120nm, Beta-endorphin 4.5nm, Arg6-Phe7 met-enkephalin 6 n moles): 4.0 and 4.7
10 | CSCC[C@H](NC(=O)[C@H](Cc1ccccc1)NC(=O)CNC(=O)CNC(=O)[C@@H](N)Cc1ccc(O)cc1)C(=O)O [F-T-2] | most active tryptic peptide | – | – | – | – | – | –
